Measurements reported in patent US11345694B2, “Antibacterial compounds” (DISCUVA LTD., priority 2017, dated 2022).
≈ marks a conversion by molar mass, not a printed value.

Key:
[1] = system: E. coli NCTC 13441 (UPEC); test: MIC broth microdilution; format: cell-based, Escherichia coli; details: Escherichia coli, NCTC13441
Summary of the method: (§1)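 Compounds are diluted two-fold across a final range of 0.39-200 μM, keeping DMSO no higher than 2% final. Bacteria in cation-adjusted Müller-Hinton broth are then incubated at 37° C under ambient atmosphere for 20-24 h. The lowest growth-inhibiting concentration gives the MIC.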

[2] = system: Acinetobacter baumannii ATCC 17978 (AB); test: MIC broth microdilution; format: cell-based; details: ATCC17978
Summary of the method: as §1

[3] = system: Escherichia coli K12 (EC); test: MIC broth microdilution; format: cell-based
Summary of the method: as §1

[4] = system: Klebsiella pneumoniae ATCC 10031 (KP2); test: MIC broth microdilution; format: cell-based; details: ATCC10031
Summary of the method: (§2)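 Two-fold dilution series, 0.39-200 μM final, max 2% DMSO; CA-MHB; 37° C, ambient air, 20-24 h; MIC = lowest conc. inhibiting visible growth. CLSI broth microdilution.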

[5] = system: Pseudomonas aeruginosa ATCC 33359 (PA); test: MIC broth microdilution; format: cell-based; details: ATCC33359
Summary of the method: as §1

[6] = system: Staphylococcus aureus ATCC 35556 (SA); test: MIC broth microdilution; format: cell-based; details: ATCC35556
Summary of the method: as §1

[7] = system: K. pneumoniae NCTC 13438 (KP1); test: MIC broth microdilution; format: cell-based, Klebsiella pneumoniae; details: Klebsiella pneumoniae, NCTC13438
Summary of the method: as §2

[8] = system: human hepatocarcinoma cell line ATCC HB-8065 (HepG2); test: Human cell viability (CellTiter-Glo); format: cell-based; details: Homo sapiens; HepG2 cells, 24 h incubation, CellTiter-Glo luminescence, 0.2-100 μM; read-out: IC50 values against the HepG2 cell line
Summary of the method: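 HepG2 cells were seeded at 20,000 cells/well in MEM with 10% FBS and, after 24 h, exposed for 24 h at 37° C. to two-fold dilutions (final 0.2-100 μM) in MEM with 1% FBS and 1% DMSO. Viability was read by CellTiter-Glo luminescence, with IC50 from a 4-parameter logistic fit.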

SMILES | MIC [1] | MIC [2] | MIC [3] | MIC [4] | MIC [5] | MIC [6] | MIC [7] | IC50 [8]
Cc1cc(-c2[nH]c(N)nc2-c2ccc3c(c2)OCCCO3)ccn1 [Example 5, 4-(3,4-dihydro-2H-benzo[b][1,4]dioxepin-7-yl)-5-(2-methylpyridin-4-yl)-1H-imidazol-2-amine] | 1 to 10 µM (≈ 0.322 to 3.22 µg/mL) | > 100 µM | 1 to 10 µM (≈ 0.322 to 3.22 µg/mL) | ≤ 1 µM | > 100 µM | > 100 µM | 10 to 100 µM (≈ 3.22 to 32.2 µg/mL) | > 100 µM
Cc1cc(-c2sc(N)nc2-c2ccc3c(c2)OCCO3)ccn1 [Example 80, 4-(2,3-Dihydrobenzo[b][1,4]dioxin-6-yl)-5-(2-methylpyridin-4-yl)thiazol-2-amine] | > 100 µM | > 100 µM | > 100 µM | 1 to 10 µM (≈ 0.325 to 3.25 µg/mL) | > 100 µM | > 100 µM | > 100 µM | > 100 µM
Cc1cc(-c2[nH]c(N)nc2-c2ccc3c(c2)NCCO3)cc(C)n1 [Example 36, 4-(3,4-Dihydro-2H-benzo[b][1,4]oxazin-6-yl)-5-(2,6-dimethylpyridin-4-yl)-1H-imidazol-2-amine] | ≤ 1 µM | > 100 µM | 1 to 10 µM (≈ 0.321 to 3.21 µg/mL) | ≤ 1 µM | > 100 µM | > 100 µM | 1 to 10 µM (≈ 0.321 to 3.21 µg/mL) | > 100 µM
Cc1cc(-c2[nH]c(N)nc2-c2ccc3c(c2)NCCCO3)ccn1 [Example 48, 5-(2-Methylpyridin-4-yl)-4-(2,3,4,5-tetrahydrobenzo[b][1,4]oxazepin-7-yl)-1H-imidazol-2-amine] | 1 to 10 µM (≈ 0.321 to 3.21 µg/mL) | > 100 µM | 1 to 10 µM (≈ 0.321 to 3.21 µg/mL) | ≤ 1 µM | > 100 µM | > 100 µM | 10 to 100 µM (≈ 3.21 to 32.1 µg/mL) | > 100 µM
CNc1nc(-c2ccc3c(c2)OCCO3)c(-c2ccnc(C)c2)[nH]1 [Example 74, 4-(2,3-dihydrobenzo[b][1,4]dioxin-6-yl)-N-methyl-5-(2-methylpyridin-4-yl)-1H-imidazol-2-amine] | 1 to 10 µM (≈ 0.322 to 3.22 µg/mL) | > 100 µM | 1 to 10 µM (≈ 0.322 to 3.22 µg/mL) | ≤ 1 µM | > 100 µM | > 100 µM | 10 to 100 µM (≈ 3.22 to 32.2 µg/mL) | > 100 µM
Cc1cc(-c2nc(N)[nH]c2-c2ccc(C(=O)N(C)C)cc2)ccn1 [Example 10, 4-(2-Amino-4-(2-methylpyridin-4-yl)-1H-imidazol-5-yl)-N,N-dimethylbenzamide] | > 100 µM | > 100 µM | > 100 µM | 1 to 10 µM (≈ 0.321 to 3.21 µg/mL) | > 100 µM | > 100 µM | > 100 µM | > 100 µM
Cc1cc(-c2[nH]c(N)nc2-c2ccc3c(c2F)OCCO3)ccn1 [Example 60, 4-(5-Fluoro-2,3-dihydrobenzo[b][1,4]dioxin-6-yl)-5-(2-methylpyridin-4-yl)-1H-imidazol-2-amine] | 1 to 10 µM (≈ 0.326 to 3.26 µg/mL) | > 100 µM | 1 to 10 µM (≈ 0.326 to 3.26 µg/mL) | ≤ 1 µM | > 100 µM | > 100 µM | 10 to 100 µM (≈ 3.26 to 32.6 µg/mL) | > 100 µM
CNC(=O)c1nc(-c2ccnc(C)c2)c(-c2ccc3c(c2)OCCO3)[nH]1 [Example 85, 5-(2,3-Dihydrobenzo[b][1,4]dioxin-6-yl)-N-methyl-4-(2-methylpyridin-4-yl)-1H-imidazole-2-carboxamide] | > 100 µM | > 100 µM | > 100 µM | 1 to 10 µM (≈ 0.35 to 3.5 µg/mL) | > 100 µM | > 100 µM | > 100 µM | > 100 µM
Cc1cc(-c2[nH]c(N)nc2-c2ccc3c(c2)NCC(C)O3)ccn1 (stereo not drawn) [Example 34, 4-(2-Methyl-3,4-dihydro-2H-benzo[b][1,4]oxazin-6-yl)-5-(2-methylpyridin-4-yl)-1H-imidazol-2-amine] | 1 to 10 µM (≈ 0.321 to 3.21 µg/mL) | > 100 µM | 1 to 10 µM (≈ 0.321 to 3.21 µg/mL) | ≤ 1 µM | > 100 µM | > 100 µM | 1 to 10 µM (≈ 0.321 to 3.21 µg/mL) | > 100 µM
Cc1cc(-c2[nH]c(N)nc2-c2ccc3c(c2)NC(=O)C(C)O3)ccn1 (stereo not drawn) [Example 33, 6-(2-Amino-5-(2-methylpyridin-4-yl)-1H-imidazol-4-yl)-2-methyl-2H-benzo[b][1,4]oxazin-3(4H)-one] | 1 to 10 µM (≈ 0.335 to 3.35 µg/mL) | > 100 µM | 1 to 10 µM (≈ 0.335 to 3.35 µg/mL) | ≤ 1 µM | > 100 µM | > 100 µM | 10 to 100 µM (≈ 3.35 to 33.5 µg/mL) | > 100 µM
Cc1cc(-c2[nH]c(N)nc2-c2cc(F)c3c(c2)NC(=O)CO3)ccn1 [Example 50, 6-(2-Amino-5-(2-methylpyridin-4-yl)-1H-imidazol-4-yl)-8-fluoro-2H-benzo[b][1,4]oxazin-3(4H)-one] | 1 to 10 µM (≈ 0.339 to 3.39 µg/mL) | > 100 µM | 1 to 10 µM (≈ 0.339 to 3.39 µg/mL) | ≤ 1 µM | > 100 µM | > 100 µM | 10 to 100 µM (≈ 3.39 to 33.9 µg/mL) | > 100 µM

Second part, the compound after the results:

MIC [1] | MIC [2] | MIC [3] | MIC [4] | MIC [5] | MIC [6] | MIC [7] | IC50 [8] | SMILES
≤ 1 µM | > 100 µM | ≤ 1 µM | ≤ 1 µM | > 100 µM | > 100 µM | 1 to 10 µM (≈ 0.324 to 3.24 µg/mL) | > 100 µM | Cc1cc(-c2nc(N)[nH]c2-c2ccc(OC3CC3)c(F)c2)ccn1 [Example 14, 5-(4-Cyclopropoxy-3-fluorophenyl)-4-(2-methylpyridin-4-yl)-1H-imidazol-2-amine]
1 to 10 µM (≈ 0.312 to 3.12 µg/mL) | > 100 µM | 1 to 10 µM (≈ 0.312 to 3.12 µg/mL) | ≤ 1 µM | > 100 µM | > 100 µM | 10 to 100 µM (≈ 3.12 to 31.2 µg/mL) | > 100 µM | CCOc1ccc(-c2[nH]c(N)nc2-c2ccnc(C)c2)cc1F [Example 17, 5-(4-Ethoxy-3-fluorophenyl)-4-(2-methylpyridin-4-yl)-1H-imidazol-2-amine]
1 to 10 µM (≈ 0.334 to 3.34 µg/mL) | > 100 µM | 1 to 10 µM (≈ 0.334 to 3.34 µg/mL) | ≤ 1 µM | > 100 µM | > 100 µM | 10 to 100 µM (≈ 3.34 to 33.4 µg/mL) | 25 to 100 µM | Cc1cc(-c2[nH]c(N)nc2-c2ccc(OC(F)(F)F)cc2)ccn1 [Example 20, 5-(2-Methylpyridin-4-yl)-4-(4-(trifluoromethoxy)phenyl)-1H-imidazol-2-amine]
10 to 100 µM (≈ 2.8 to 28 µg/mL) | > 100 µM | 10 to 100 µM (≈ 2.8 to 28 µg/mL) | ≤ 1 µM | > 100 µM | > 100 µM | 10 to 100 µM (≈ 2.8 to 28 µg/mL) | > 100 µM | COc1cccc(-c2nc(N)[nH]c2-c2ccnc(C)c2)c1 [Example 25, 4-(3-Methoxyphenyl)-5-(2-methylpyridin-4-yl)-1H-imidazol-2-amine]
1 to 10 µM (≈ 0.298 to 2.98 µg/mL) | > 100 µM | 1 to 10 µM (≈ 0.298 to 2.98 µg/mL) | ≤ 1 µM | > 100 µM | > 100 µM | 10 to 100 µM (≈ 2.98 to 29.8 µg/mL) | > 100 µM | COc1cc(-c2[nH]c(N)nc2-c2ccnc(C)c2)ccc1F [Example 6, 5-(4-Fluoro-3-methoxyphenyl)-4-(2-methylpyridin-4-yl)-1H-imidazol-2-amine]
1 to 10 µM (≈ 0.281 to 2.81 µg/mL) | > 100 µM | 1 to 10 µM (≈ 0.281 to 2.81 µg/mL) | ≤ 1 µM | > 100 µM | > 100 µM | 10 to 100 µM (≈ 2.81 to 28.1 µg/mL) | > 100 µM | COc1ccc(-c2nc(N)[nH]c2-c2ccnc(C)c2)cn1 [Example 2, 4-(6-Methoxypyridin-3-yl)-5-(2-methylpyridin-4-yl)-1H-imidazol-2-amine]
≤ 1 µM | > 100 µM | ≤ 1 µM | ≤ 1 µM | > 100 µM | > 100 µM | 1 to 10 µM (≈ 0.306 to 3.06 µg/mL) | > 100 µM | Cc1cc(-c2[nH]c(N)nc2-c2ccc3c(c2)CC(C)O3)ccn1 (racemic) [Example 41, 4-(2-Methyl-2,3-dihydrobenzofuran-5-yl)-5-(2-methylpyridin-4-yl)-1H-imidazol-2-amine]
